The source of these data is ChEMBL document CHEMBL1148601, “Inhibition of cytosolic phospholipase A2alpha: hit to lead optimization” (J Med Chem, 2006).

Calls of active or inactive are those of the source. The calls are words filed in the database; no cut-off is given here.

Series [1] deals with T1, Cytosolic phospholipase A2 (Homo sapiens, UniProt P47712).
T1 sequence (P47712 whole entry): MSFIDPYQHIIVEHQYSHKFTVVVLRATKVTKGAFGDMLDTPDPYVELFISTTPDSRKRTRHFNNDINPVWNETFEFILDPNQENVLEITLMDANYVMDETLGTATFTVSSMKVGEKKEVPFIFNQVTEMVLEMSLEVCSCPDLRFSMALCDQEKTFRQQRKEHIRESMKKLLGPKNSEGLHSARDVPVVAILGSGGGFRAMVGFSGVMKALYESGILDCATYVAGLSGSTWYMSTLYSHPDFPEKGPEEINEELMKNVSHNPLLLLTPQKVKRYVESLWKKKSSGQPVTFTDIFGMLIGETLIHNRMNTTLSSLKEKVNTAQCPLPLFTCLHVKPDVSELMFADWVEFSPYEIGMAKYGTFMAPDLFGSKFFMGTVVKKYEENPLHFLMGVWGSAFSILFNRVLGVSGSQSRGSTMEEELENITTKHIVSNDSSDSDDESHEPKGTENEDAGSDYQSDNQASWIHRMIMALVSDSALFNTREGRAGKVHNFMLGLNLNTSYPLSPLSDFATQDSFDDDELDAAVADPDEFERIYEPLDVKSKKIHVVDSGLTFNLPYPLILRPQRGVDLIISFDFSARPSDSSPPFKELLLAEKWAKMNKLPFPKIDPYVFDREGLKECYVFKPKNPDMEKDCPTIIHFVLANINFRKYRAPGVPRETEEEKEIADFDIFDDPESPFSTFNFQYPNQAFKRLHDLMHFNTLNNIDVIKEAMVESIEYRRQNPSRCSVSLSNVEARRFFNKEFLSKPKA
As to the kind of experiment: Inhibition of cytosolic phospholipase A2-alpha in GLU micelle assay.

Series [2] is described as follows: Inhibition of TXB2 production in Sprague-Dawley rat whole blood. Type of series: functional, tissue-based.
Series [3] can be described thus: Inhibition of LTB4 production expressed in MC9 cells in presence of 1 megacells/mL. The settings on record: Mus musculus. The series is classed as functional, cell-based.
Series [4] in a line: Inhibition of LTB4 production expressed in MC9 cells in presence of 4 megacells/mL. The series is classed as functional, cell-based. Particulars: Mus musculus.
Series [5] can be described thus: Inhibition of LTB4 production expressed in MC9 cells in presence of 8 megacells/mL. Type of series: functional, cell-based. Particulars: Mus musculus.
Another series is filed under the species Rattus norvegicus. Nature of the series: (§1) Inhibition of TXB2 production in Sprague-Dawley rat whole blood at 10 uM. Type of series: functional, tissue-based.
Series [6] can be described thus: Inhibition of TXB2 production in human whole blood. Type of series: functional, tissue-based.
A short description of series [7]: Inhibition of LTB4 production in human whole blood. The series is classed as functional, tissue-based.
The nature of series [8]: Plasma concentration in rat. Type of series: ADME, organism-based.
Series [9] is described as follows: Oral bioavailability in rat. Particulars: in vivo. Type of series: ADME, organism-based.
The nature of series [10]: Inhibition of LTB4 production in MC9 cells at 1.5 uM. The series is classed as functional. The settings on record: Mus musculus.
Series [11] in a line: Inhibition of PGF2-alpha production in MC9 cells at 1.5 uM. The series is classed as functional. Particulars: Mus musculus.
The nature of series [12]: Inhibition of PGF2-alpha production in the presence of exogenous arachidonic acid in MC9 cell at 1.5 uM. Type of series: functional. Particulars: Mus musculus.
Series [13] is described as follows: Inhibition of LTB4 production in MC9 cells at 0.5 uM. Type of series: functional. The settings on record: Mus musculus.
Series [14] can be described thus: Inhibition of PGF2-alpha production in MC9 cells at 0.5 uM. The series is classed as functional. Particulars: Mus musculus.
Series [15] is described as follows: Inhibition of PGF2-alpha production in the presence of exogenous arachidonic acid in MC9 cells at 0.5 uM. Particulars: Mus musculus. Type of series: functional.
Series [16] is described as follows: as §1. The series is classed as functional, tissue-based.

As a reminder, the IC50 is the concentration needed to halve the response being measured. By inhibition is commonly meant the drop in the measured response relative to a control, in per cent. Usually clearance stands for the rate of elimination divided by the concentration. As usually defined, the bioavailability is the share of a dose that reaches the circulation, judged against a reference dose that is usually intravenous. A high value points to good availability.

`COc1cc(C(=O)O)ccc1Cc1cn(C(c2ccccc2)c2ccccc2)c2cc(Cl)ccc12`: the concentration for half-maximal inhibition (IC50) is 160 µM in [1]; over 400 µM in [2]; 0.8 µM in series [3]; 1.5 µM in series [4]; 8.3 µM in series [5].
As to `Cc1c(CCOc2ccc(C(=O)O)cc2)c2cc(N)ccc2n1C(c1ccccc1)c1ccccc1`, inhibition in [1] was half-maximal at 8 µM (IC50). In the series filed under Rattus norvegicus, the inhibition result was “inactive”.
`Cc1c(CCOc2ccc(C(=O)O)cc2)c2cc(Cl)ccc2n1C(c1ccccc1)c1ccccc1`: the IC50 was found to be 3 µM in series [1], 7 µM in series [2], 34 µM in series [6] and 30 µM in [7]. Also, the clearance in series [8] stood at 3.2 mL/min/kg. The bioavailability in series [9] was 2.6%. In addition, the inhibition at 1.5 µM in series [10] is 96%; in series [11], 81%; in series [12], -8%.
As to `Cc1c(CCS(=O)(=O)c2ccc(CCC(=O)O)cc2)c2cc(Cl)ccc2n1C(c1ccccc1)c1ccccc1`, the IC50 turned out to be 0.5 µM in series [1], 0.8 µM in [2], 1.4 µM in [6] and 0.9 µM in [7]. In addition, the inhibition at 0.5 µM was 100% in series [13], 100% in [14] and 2% in [15]. The same molecule had a clearance in [8] of 47 mL/min/kg. Moreover, the bioavailability in series [9] turned out to be 11%.
As for `Cc1c(CCOc2ccc(C(=O)O)cn2)c2cc(Cl)ccc2n1C(c1ccccc1)c1ccccc1`, the values for the IC50 in [1] and in series [16] were 85 µM and “Not Active”, respectively.
